Source: article PMC9268100, “Chelation of Theranostic Copper Radioisotopes with S-Rich Macrocycles: From Radiolabelling of Copper-64 to In Vivo Investigation” (Molecules, 2022)

Experiments:
[1] = Stability assay with DOTA (1000:1 DOTA-to-ligand); format: physicochemical; conditions: RT
Procedure: (§1) The stability of the preformed [^64Cu]Cu^2+ complexes was assessed by adding a 1000:1 DOTA/cysteine-to-ligand molar ratio excess. The incubation temperature was set at 37 °C when cysteine was used to simulate the biological environment, whilst it was kept at RT when DOTA was employed as a challenging agent.
(§2) The complex stability was evaluated over time by withdrawing an aliquot from the reaction mixtures. The latter was analyzed by UHPLC using the method described above.

[2] = Stability assay with cysteine (1000:1 Cys-to-ligand); format: physicochemical; conditions: 37 °C
Procedure: as §1, §2

Human serum stability = format: in vitro ADME; conditions: prepared at 25 MBq/nmol, 37 °C, over 24 h
Procedure: Human serum stability assays were performed as follow: the preformed [^64Cu]Cu^2+ complexes (prepared at 25 MBq/nmol) were diluted 1:5 v/v in human serum. The samples were incubated at 37 °C to simulate the biological environment. At the defined time point, 50 μL of the plasma-containing mixture were added to 200 μL of ice-cold methanol (0.16 MBq/μL final concentration) and centrifuged for 3 min at 8000 rpm. Afterwards, 2 μL of supernatant were spotted on TLC plates developed using the previous protocols. Dissociation of [^64Cu]Cu^2+ from the complexes was also monitored at varying time points using the same procedure with the exception that no proteins were precipitated. In this case, 2 μL of human plasma containing the labelled complex was directly spotted on the TLC plate. […] Both procedures were validated by incubating free [^64Cu]Cu^2+ with human plasma.

[3] = Biodistribution in BALB/c nude mice; format: in vivo
Procedure: (§3) All procedures involving animals were performed in accordance with ethical protocols approved by the Italian Ministry of Health (n. 44/2021-PR). Six-week-old female BALB/c nude mice (n = 9) were purchased from Charles River/Envigo and divided into three groups. Mice (n = 3/group) were administered with 7–14 MBq (depending on acquisition time after injection) of [^64Cu][Cu(DO2A2S)] solution by caudal intravenous injection. The exact amount of injected radioactivity was determined using a Capintec CRC-15PET dose calibrator. Micro PET/CT data were collected at 1, 4, and 24 h post injection using a Bruker Albira Si. Mice were anaesthetized with 1–2% isoflurane in a flow of oxygen (2 L/min 100% O2) and images were acquired over 20 min (10 min for PET and CT images acquisition, respectively). PET data were reconstructed using MLEM GPU (Graphics Processing Unit), while Filter Back Projection Algorithm was used for reconstructing CT images. Mice were euthanized by cervical dislocation immediately following the PET/CT scan and organs and tissues of interest were collected and weighed. Radioactivity associated with organs was measured using a γ-spectrometer based on a 1″×1″ inch cylindrical LBC (Lanthanum BromoChloride), LaBr2.85Cl0.15:Ce, inorganic scintillator manufactured by SCIONIX coupled to a HAMAMATSU R11102 Photomultiplier tube (PMT) which was previously characterized and validated against a Capintec CRC-15PET dose calibrator [48]. The results were corrected for decay to the time of injection. Radioactivity values were expressed as percentage of injected dose (mean ± SEM) per gram of tissue or organ (% ID/g). Concurrently, blood and urine aliquots (1 μL) were sampled for stability tests, which were carried out by radio-TLC scans (Cyclone, Perkin Elmer) by using silica gel 60 RP-18 F254S plates and 0.1 M sodium citrate as eluent.

[4] = In vivo stability in blood and urine samples (radio-TLC); design: species or system BALB/c nude mice
Procedure: as §3, with “PET data were reconstructed using MLEM GPU (Graphics Processing Unit), while Filter Back Projection Algorithm was used for reconstructing CT images. Mice were euthanized by cervical dislocation immediately following the PET/CT scan and organs and tissues of interest were collected and weighed.” left out, “The results were corrected for decay to the time of injection.” left out, “Concurrently, blood and urine aliquots (1 μL) were sampled for stability tests, which were carried out by radio-TLC scans (Cyclone, Perkin Elmer) by using silica gel 60 RP-18 F254S plates and 0.1 M sodium citrate as eluent.” left out

[5] = Stability in phosphate-buffered saline; format: physicochemical; conditions: 25 MBq/nmol, 24 h; for intact complex in PBS: no radioprotectant, ambient temperature
Procedure: The stability of the preformed [^64Cu]Cu^2+ complexes in phosphate-buffered saline (PBS) was explored by diluting the labelling solution 1:1 v/v in PBS (pH 7.4). Both low and high molar activities (0.1 MBq/nmol and 25 MBq/nmol, respectively) were employed to evaluate the effect of radiolysis. Radioprotectants (ethanol 10% v/v or ascorbic acid 10% v/v) were added to PBS to quench the radiolysis phenomena. The [^64Cu]Cu^2+ complex stabilities were investigated at different time points after preparation using the TLC or UHPLC protocols reported previously.

[6] = maximum reached over 1-24 h post-injection

SMILES | % of intact complex, DOTA, 0 h [1] | % of intact complex, DOTA, 7 h [1] | % of intact complex, DOTA, 24 h [1] | % of intact complex, Cysteine, 0 h [2] | % of intact complex, Cysteine, 3 h [2] | % of intact complex, Cysteine, 24 h [2] | other results
CSCCN1CCN(CC(=O)[O-])CCN(CCSC)CCN(CC(=O)[O-])CC1.[64Cu+2] [[^64Cu][Cu(DO2A2S)]] | 91% | 90% | 87% | 100% | 85% | 74% | intact complex in human serum (Human serum stability): > 99%; blood levels ([3]; 1 h post-injection, tail vein): < 2 % ID/g; kidneys uptake ([3]; 1 h post-injection, tail vein): 14.1 % ID/g; liver uptake ([3]; 1 h post-injection, tail vein): 14.0 % ID/g; lungs uptake ([3]; 1 h post-injection, tail vein): 8 % ID/g; pancreas uptake ([3]; 1 h post-injection, tail vein): 3 % ID/g; retention in bone ([3]; 1 h post-injection, tail vein): < 2 % ID/g; retention in muscle ([3]; 1 h post-injection, tail vein): < 1 % ID/g; spleen uptake ([3]; 1 h post-injection, tail vein): 4 % ID/g; dose found at 1 h remaining in kidneys at 24 h ([3]; 24 h versus 1 h post-injection): 73%; dose found at 1 h remaining in liver at 24 h ([3]; 24 h versus 1 h post-injection): 82%; dose found at 1 h remaining in lungs at 24 h ([3]; 24 h versus 1 h post-injection): 75%; pancreas uptake, progressive accumulation over time [3, 6]: ≤ 5.5 % ID/g; spleen uptake, progressive accumulation over time [3, 6]: up to 5.3 % ID/g; free-[^64Cu]Cu^2+/+ in urine samples ([4]; 4 h post-injection): ~50%; free copper-64 in blood samples ([4]; within 24 h from the injection): less than 5%
CSCCN1CCN(CCSC)CCN(CCSC)CCN(CCSC)CC1 [DO4S, 1,4,7,10-Tetrakis[2-(methylsulfanyl)ethyl]-1,4,7,10-tetraazacyclododecane] | – | – | – | – | – | – | intact complex in PBS [5]: ~ 70%
O=C([O-])CN1CCN(CC(=O)[O-])CCN(CC(=O)[O-])CCN(CC(=O)[O-])CC1.[64Cu+2] [[^64Cu][Cu(DOTA)]^2−, reference compound] | – | – | – | – | – | – | intact complex in human serum (Human serum stability): around 80%
CSCCN1CCN(CC(=O)O)CCN(CCSC)CCN(CC(=O)O)CC1 [DO2A2S, 1,7-bis[2-(methylsulfanyl)ethyl]-4,10,diacetic acid-1,4,7,10-tetraazacyclododecane] | – | – | – | – | – | – | intact complex in PBS with ascorbic acid ([5]; ascorbic acid 10% v/v): ~ 90%; intact complex in PBS [5]: ~ 25%

Second part, led by results:

% of intact complex, DOTA, 0 h [1] | % of intact complex, DOTA, 7 h [1] | % of intact complex, DOTA, 24 h [1] | % of intact complex, Cysteine, 0 h [2] | % of intact complex, Cysteine, 3 h [2] | % of intact complex, Cysteine, 24 h [2] | SMILES | other results
100% | 92% | 88% | 100% | 100% | 83% | CSCCN1CCN(CCSC)CCN(CCSC)CCN(CCSC)CC1.[64Cu+2] [[^64Cu][Cu(DO4S)]^2+] | complex stability in PBS with radioprotectants ([5]; ethanol 10% v/v or ascorbic acid 10% v/v): preserve the complex over 24 h
100% | 80% | 38% | 100% | 83% | 72% | CNC(=O)CN1CCN(CCSC)CCN(CCSC)CCN(CCSC)CC1.[64Cu+2] [[^64Cu][Cu(DO3SAm)]^2+] | –
100% | 100% | 100% | 100% | 100% | 100% | CSCCN1CCNCCN(CCSC)CCN(CCSC)CC1.[64Cu+2] [[^64Cu][Cu(DO3S)]^2+] | –
